Measured values: patent US20250388575A1, “HETEROBIFUNCTIONAL COMPOUNDS AND METHODS OF TREATING DISEASE” (Halda Therapeutics OpCo, Inc., priority 2022, published 2025)
Where two headings read alike, the source gives them in different places.

Legend:
[1] = test system: T-Rex 293 cell line SC cells lacking increased expression of progesterone receptor isoform B protein; assay: Cellular growth inhibition, T-Rex 293 SC cells lacking increased progesterone receptor isoform B expression (no doxycycline), CellTiter-Glo; type: cell-based; details: T-Rex 293 SC cells not exposed to doxycycline, 72 hours
Procedure: (§1) The following types of cells were prepared for this experiment: (i) a T-Rex 293 cell line having increased expression of progesterone receptor isoform B protein due to exposure to doxycycline and (ii) a T-Rex 293 cell line lacking increased expression of progesterone receptor isoform B protein. Ability of the test compounds to inhibit proliferation of the foregoing cell types was evaluated according to the procedures set forth below.
(§2) The doxycycline-inducible progesterone receptor isoform B protein expressing cell line was established using the following protocol: T-Rex 293 cells were purchased from Invitrogen (Cat #R71007) and transfected using Lipofectamine 2000 with the wild-type progesterone receptor B protein sequence cloned into the pcDNA4/TO vector. Transfected cells were selected using 400 μg/mL Zeocin (Invitrogen Cat #R25001). Following selection, single clones were raised and maintained in Dulbecco's Modified Eagle Medium (DMEM) supplemented with 10% w/w Tetracycline-free fetal bovine serum (FBS) and 250 μg/mL Zeocin. Clones were analyzed for expression of progesterone receptor isoform B protein in the presence and absence of 10 ng/ml doxycycline (Sigma Cat #D9891), and a single doxycycline-inducible clone (hereinafter “SC”) was selected for use in downstream assays.
(§3) The SC cells were seeded on poly-D-lysine coated, black clear-bottom 384-well plates at 2500/well, in 25 μL Phenol Red Free Dulbecco's Modified Eagle Medium (DMEM) supplemented with 10% w/w charcoal-dextran treated fetal bovine serum (FBS) and 1% w/w pen-strep, with or without 10 ng/mL doxycycline. Pen-Strep is a commercially available mixture of penicillin G and streptomycin, which is used in mammalian cell culture media to prevent bacterial contamination. Phenol Red Free Dulbecco's Modified Eagle Medium (DMEM) supplemented with 10% w/w charcoal-dextran treated fetal bovine serum (FBS) and 1% w/w pen-strep, with or without 10 ng/mL doxycycline is herein referred to as Treatment Medium. Following seeding of cells in the plates, the plates were spun at 300×g for 30 seconds, then equilibrated to room temperature for 30 minutes, and then deposited in a humidified tissue culture incubator maintained at 37° C. with 5% CO2.
(§4) At 24 hours after seeding of the cells, dilutions of test compound were prepared in DMSO and dissolved in Treatment Medium, to achieve a final DMSO concentration of 0.5% w/w, thereby providing the Test Compound Solution. A 25 μL aliquot of the Test Compound Solution was added to cells in the well plates. An equal volume of a solution containing DMSO and Treatment Medium was used as a negative control. Following treatment of cells with Test Compound Solution or said equal volume of a solution containing DMSO and Treatment Medium, the plates were spun at 300×g for 30 seconds, and then left in an incubator for 72 hours.
(§5) At the end of the treatment duration, cell viability was quantified with CellTiter-Glo 2.0 reagent (Promega Cat #G9243). For this purpose, plates were equilibrated to room temperature for 30 minutes, and then 25 μL of CellTiter-Glo 2.0 reagent was added to cells in the plate wells. Plates were then agitated on a shaker for two minutes at 500 rpm and subsequently incubated at room temperature for 10 minutes. Following incubation, the plates were spun at 3000×g for 30 seconds, then sealed with an optical adhesive cover, and luminescence readings were measured with an EnVision Plate Reader (Perkin Elmer).
(§6) Data was normalized using zero luminescence for baseline. A four-parameter non-linear regression curve fit was applied to dose-response data in GraphPad Prism data analysis software to determine the half-maximal growth inhibitory concentration (GI50) for each test compound.

[2] = test system: T-Rex 293 cell line SC3 cells having increased expression of androgen receptor protein; assay: Cellular growth inhibition, T-Rex 293 SC3 cells with increased androgen receptor expression (doxycycline), CellTiter-Glo; type: cell-based; details: T-Rex 293 SC3 cells with increased androgen receptor expression (exposed to 10 ng/mL doxycycline), 72 hours, CellTiter-Glo; read-out: GI50
Method in brief: (§7)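 SC3, a T-Rex 293 clone with doxycycline-inducible wild-type androgen receptor, was seeded in phenol red-free DMEM with 10% charcoal-dextran FBS, with or without 10 ng/mL doxycycline. Compound added at 24 h (0.5% DMSO) for 72 h at 37° C. CellTiter-Glo 2.0 luminescence; GI50 from four-parameter fit.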

[3] = test system: T-Rex 293 cell line SC3 cells lacking increased expression of androgen receptor protein; assay: Cellular growth inhibition, T-Rex 293 SC3 cells lacking increased androgen receptor expression (no doxycycline), CellTiter-Glo; type: cell-based; details: T-Rex 293 SC3 cells lacking increased androgen receptor expression (not exposed to doxycycline), 72 hours, CellTiter-Glo; read-out: GI50
Method in brief: as §7

VCaP cells = assay: Cellular growth inhibition assay for VCaP cells, CellTiter-Glo; type: cell-based, human; details: VCaP cells, 72 hours, CellTiter-Glo, read-out: GI50
Method in brief: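 GI50 values come from four-parameter curve fits of luminescence data normalized to a zero baseline. Compound, in medium with 0.5% DMSO, was added one day after plating and left for 72 h before CellTiter-Glo 2.0 addition.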

[4] = test system: T-Rex 293 cell line SC cells having increased expression of progesterone receptor isoform B protein; assay: Cellular growth inhibition, T-Rex 293 SC cells with increased progesterone receptor isoform B expression (doxycycline), CellTiter-Glo; type: cell-based; details: progesterone receptor isoform B induced with 10 ng/mL doxycycline, 72 hours
Procedure: as §1, §2, §3, §4, §5, §6

T47D cells = assay: Cellular growth inhibition assay for T47D cells, CellTiter-Glo; type: cell-based, human; details: 72 hours treatment, CellTiter-Glo 2.0
Method in brief: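 Cells are plated at 3000/well and allowed 24 h before treatment. Test compound in medium containing 0.5% DMSO is then added, with DMSO-only wells as negative control, and plates are incubated 72 h at 37 °C. ATP luminescence (CellTiter-Glo 2.0) is then fitted to four parameters to derive GI50.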

BRD4-BD2 = BRD4-BD2 (Homo sapiens (Human), UniProt O60885); assay: bromoKdELECT assay for binding affinity to BRD4-BD2; details: 11-point 3-fold dilution
Procedure: (§8) Compounds were tested using a bromoKdELECT assay. T7 phage strains displaying bromodomains were grown in parallel in 24-well blocks in an E. coli host derived from the BL21 strain. E. coli were grown to log-phase and infected with T7 phage from a frozen stock (multiplicity of infection=0.4) and incubated with shaking at 32° C. until lysis (90-150 minutes). The lysates were centrifuged (5,000×g) and filtered (0.2 μm) to remove cell debris. Streptavidin-coated magnetic beads were treated with biotinylated small molecule or acetylated peptide ligands for 30 minutes at room temperature to generate affinity resins for bromodomain assays. The liganded beads were blocked with excess biotin and washed with blocking buffer (SeaBlock (Pierce), 1% BSA, 0.05% Tween 20, 1 mM DTT) to remove unbound ligand and to reduce nonspecific phage binding. Binding reactions were assembled by combining bromodomains, liganded affinity beads, and test compounds in 1× binding buffer (17% SeaBlock, 0.33×PBS, 0.04% Tween 20, 0.02% BSA, 0.004% Sodium azide, 7.4 mM DTT). Test compounds were prepared as 1000× stocks in 100% DMSO. Kds were determined using an 11-point 3-fold compound dilution series with one DMSO control point. All compounds for Kd measurements are distributed by acoustic transfer (non-contact dispensing) in 100% DMSO. The compounds were then diluted directly into the assays such that the final concentration of DMSO was 0.09%. All reactions performed in polypropylene 384-well plates. Each was a final volume of 0.02 ml. The assay plates were incubated at room temperature with shaking for 1 hour and the affinity beads were washed with wash buffer (1×PBS, 0.05% Tween 20). The beads were then resuspended in elution buffer (1×PBS, 0.05% Tween 20, 2 μM non-biotinylated affinity ligand) and incubated at room temperature with shaking for 30 minutes. The bromodomain concentration in the eluates was measured by qPCR.

BRD4-BD1 = BRD4-BD1 (Homo sapiens (Human), UniProt O60885); assay: bromoKdELECT assay for binding affinity to BRD4-BD1; details: 11-point 3-fold dilution
Procedure: as §8

Row | GI50 (VCaP cells; Homo sapiens) [nM] | GI50 (T47D cells; Homo sapiens) [nM] | Kd (BRD4-BD2) [nM] | Kd (BRD4-BD1) [nM] | GI50 (VCaP cells) [nM] | GI50 (T47D cells) [nM] | Structure (SMILES) | GI50 [1] [nM] | GI50 [2] [nM] | GI50 [3] [nM] | GI50 [4] [nM]
1 | < 500 | < 500 | – | – | – | – | Cn1cc(-c2cc(C(C)(C)O)ccc2Oc2ccc(CC3CCN(c4ccc(C(=O)N[C@H]5CC[C@H](Oc6ccc(C#N)c(Cl)c6)CC5)nn4)CC3)cc2)c2cc[nH]c2c1=O [I-101] | < 500 | < 500 | 500 to 1500 | < 500
2 | < 500 | < 500 | – | – | – | – | Cn1cc(-c2cc(C(C)(C)O)ccc2Oc2ccc(OCCN3CCN(c4ccc(C(=O)N[C@H]5CC[C@H](Oc6ccc(C#N)c(Cl)c6)CC5)nn4)CC3)cc2)c2cc[nH]c2c1=O [I-97] | < 500 | < 500 | < 500 | < 500
3 | < 500 | < 500 | – | – | – | – | CCS(=O)(=O)Nc1ccc(Oc2cccc(N3CC(OC4CCN(c5ccc(C(=O)N[C@H]6CC[C@H](Oc7ccc(C#N)c(Cl)c7)CC6)nn5)CC4)C3)c2F)c(-c2cn(C)c(=O)c3[nH]ccc23)c1 [I-25] | < 500 | < 500 | > 3000 | < 500
4 | < 500 | < 500 | < 50 | < 50 | – | – | CCS(=O)(=O)c1ccc(Oc2ccc(CN3CC4(CCN(c5ccc(C(=O)N[C@H]6CC[C@H](Oc7ccc(C#N)c(Cl)c7)CC6)nn5)CC4)C3)cc2)c(-c2cn(C)c(=O)c3[nH]ccc23)c1 [I-57] | – | < 500 | < 500 | –
5 | – | – | > 2500 | > 2500 | < 500 | < 500 | Cn1cc(-c2cc(C(C)(C)O)ccc2Oc2ccc(CCC3CCN(c4ccc(C(=O)N[C@H]5CC[C@H](Oc6ccc(C#N)c(Cl)c6)CC5)nn4)CC3)cc2F)c2cc[nH]c2c1=O [I-111] | – | < 500 | > 3000 | –
6 | < 500 | < 500 | 50 to 500 | 50 to 500 | – | – | CN(c1ccc(Oc2ccc(C(C)(C)O)cc2-c2cn(C)c(=O)c3[nH]ccc23)cc1)C1CCN(c2ccc(C(=O)N[C@H]3CC[C@H](Oc4ccc(C#N)c(Cl)c4)CC3)nn2)CC1 [I-137, N-[4-(3-chloro-4-cyano-phenoxy)cyclohexyl]-6-[4-[4-[4-(1-hydroxy-1-methyl-ethyl)-2-(6-methyl-7-oxo-1H-pyrrolo[2,3-c]pyridin-4-yl)phenoxy]-N-methyl-anilino]-1-piperidyl]pyridazine-3-carboxamide] | – | < 500 | > 3000 | –
7 | – | – | – | – | < 500 | – | CN(CCOc1ccc(Oc2ccc(C(C)(C)O)cc2-c2cn(C)c(=O)c3[nH]ccc23)cc1)c1ccc(C(=O)N[C@H]2CC[C@H](Oc3ccc(C#N)c(Cl)c3)CC2)nn1 [I-98] | < 500 | < 500 | < 500 | < 500
8 | < 500 | < 500 | < 50 | < 50 | – | – | CCS(=O)(=O)c1ccc(Oc2cccc(CCN3CCN(c4ccc(C(=O)N[C@H]5CC[C@H](Oc6ccc(C#N)c(Cl)c6)CC5)nn4)CC3)c2F)c(-c2cn(C)c(=O)c3[nH]ccc23)c1 [I-55] | – | < 500 | < 500 | –
9 | – | – | 50 to 500 | 50 to 500 | < 500 | < 500 | CCS(=O)(=O)c1ccc(Oc2ccc(CCC3CCN(c4ccc(C(=O)N[C@H]5CC[C@H](Oc6ccc(C#N)c(Cl)c6)CC5)nn4)CC3)cc2)c(-c2cn(C)c(=O)c3[nH]ccc23)c1 [I-50] | – | < 500 | < 500 | –
10 | – | – | 50 to 500 | 50 to 500 | < 500 | < 500 | CCS(=O)(=O)c1ccc(Oc2ccc(CCC3CCN(c4ccc(C(=O)N[C@H]5CC[C@H](Oc6ccc(C#N)c(Cl)c6)CC5)nn4)CC3)nc2)c(-c2cn(C)c(=O)c3[nH]ccc23)c1 [I-219] | – | < 500 | < 500 | –
11 | – | – | 500 to 2500 | 500 to 2500 | < 500 | < 500 | CCS(=O)(=O)c1ccc(Oc2cccc(OCCC3CCN(c4ccc(C(=O)N[C@H]5CC[C@H](Oc6ccc(C#N)c(Cl)c6)CC5)nn4)CC3)c2F)c(-c2cn(C)c(=O)c3[nH]ccc23)c1 [I-42] | – | < 500 | < 500 | –
12 | < 500 | < 500 | < 50 | < 50 | – | – | CCS(=O)(=O)c1ccc(Oc2ccc(CN3CC4(C3)CN(c3ccc(C(=O)N[C@H]5CC[C@H](Oc6ccc(C#N)c(Cl)c6)CC5)nn3)C4)cc2)c(-c2cn(C)c(=O)c3[nH]ccc23)c1 [I-56] | – | < 500 | < 500 | –
13 | < 500 | < 500 | 50 to 500 | 50 to 500 | – | – | CCS(=O)(=O)c1ccc(Oc2ccc(N3CC4(CCN(c5ccc(C(=O)NC6CCC(Oc7ccc(C#N)c(Cl)c7)CC6)nn5)CC4)C3)cc2)c(-c2cn(C)c(=O)c3[nH]ccc23)c1 (centres unmarked) [I-90, N-[4-(3-chloro-4-cyano-phenoxy)cyclohexyl]-6-[2-[4-[4-ethylsulfonyl-2-(6-methyl-7-oxo-1H-pyrrolo[2,3-c]pyridin-4-yl)phenoxy]phenyl]-2,7-diazaspiro[3.5]nonan-7-yl]pyridazine-3-carboxamide] | – | < 500 | < 500 | –
